Key:
[1] = molecular target: Microtubule-associated protein tau (Homo sapiens, UniProt P10636); assay: Thio S Fluorometry Assay: The Thio S fluorometry assay as a primary screening method to identify tau protein aggregation inhibitors from our small molecule library. Aggregated tau fibrils were prepared in the presence of equimolar ratios of TauRD and heparin (10 μM each) in 20 mM Na-phosphate buffer, pH7.4. The reaction mixture was incubated at 37° C. with shaking (800-1000 rpm) for 22-24 hr (or for 3 days). In the Thio S inhibition assays, test compounds at 0, 0.1, 1, 10 and 100 μM were added at time 0 into the reaction containing TauRD and heparin. The same reaction mixture (+/− increasing concentrations of compounds) but without TauRD were also set up in parallel to serve as background controls. For all test compounds background fluorescence readings were very low, usually <5% of those of the TauRD-containing wells. For each compound, the IC50 was calculated using Prism version 5 software (GraphPad Software) by nonlinear regression [(Log [inhibitor] vs. normalized response; variable slope)].
Alpha-synuclein = Alpha-synuclein (Homo sapiens, UniProt P37840); assay: In order to assess relative binding affinities of the test compounds for aggregated α-synuclein, competition assays were set up with a radiolabeled molecule already known to bind to α-synuclein fibrils and non-radiolabeled test compounds. In order to induce its aggregation, α-synuclein was incubated in phosphate buffered saline (PBS, pH 7.4) at 37° C. for three days with shaking (1,400 rpm). Competitive binding assays were carried out in 12×75 mm borosilicate glass tubes.

Microtubule-associated protein tau, sequence (P10636 whole entry): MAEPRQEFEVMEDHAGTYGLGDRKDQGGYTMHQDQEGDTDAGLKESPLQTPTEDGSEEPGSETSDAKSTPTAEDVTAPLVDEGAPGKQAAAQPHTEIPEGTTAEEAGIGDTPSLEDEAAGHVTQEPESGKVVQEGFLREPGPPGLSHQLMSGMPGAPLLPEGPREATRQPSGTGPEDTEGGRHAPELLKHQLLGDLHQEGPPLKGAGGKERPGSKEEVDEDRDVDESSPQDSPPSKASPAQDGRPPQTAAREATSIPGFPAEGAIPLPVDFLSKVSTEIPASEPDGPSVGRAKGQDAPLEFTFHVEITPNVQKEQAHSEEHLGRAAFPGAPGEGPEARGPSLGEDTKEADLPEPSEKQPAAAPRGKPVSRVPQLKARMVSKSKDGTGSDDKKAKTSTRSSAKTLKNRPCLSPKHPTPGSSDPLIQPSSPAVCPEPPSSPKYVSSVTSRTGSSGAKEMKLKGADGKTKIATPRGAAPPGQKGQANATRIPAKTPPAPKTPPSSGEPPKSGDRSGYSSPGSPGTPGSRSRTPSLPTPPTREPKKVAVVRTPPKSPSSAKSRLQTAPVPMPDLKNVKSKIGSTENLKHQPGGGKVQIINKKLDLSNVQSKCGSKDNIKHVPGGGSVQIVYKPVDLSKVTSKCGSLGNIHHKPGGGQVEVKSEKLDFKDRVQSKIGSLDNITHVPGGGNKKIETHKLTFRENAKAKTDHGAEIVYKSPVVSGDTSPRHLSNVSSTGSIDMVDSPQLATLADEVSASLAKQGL

SMILES	IC50 [1]	Ki (Alpha-synuclein)
O=C(/C=C/c1ccc(O)c(O)c1)c1ccc(O)c(O)c1	21.4 µM	–
O=C(/C=C/c1ccc(O)c(O)c1)c1cc(O)c(O)cc1Br	21.2 µM	–
Oc1ccc(-c2cc(Br)c(-c3ccc(O)c(O)c3)s2)cc1O	211 µM	–
Oc1ccc(-c2nsc(-c3ccc(O)c(O)c3)n2)cc1O	10.2 µM	–
Oc1ccc(-c2nc3cc(O)c(O)cc3o2)cc1O	7.34 µM	–
Oc1ccc(-c2nnc(-c3ccc(O)c(O)c3)o2)cc1O	3940 µM	–
Oc1ccc(-c2cn(-c3ccc(O)c(O)c3)nn2)cc1O	34 µM	–
Oc1ccc(-c2cnc(-c3ccc(O)c(O)c3)o2)cc1O	117 µM	0.659 µM
O=C(/C=C/c1cc(O)c(O)cc1Br)c1ccc(O)c(O)c1	9.02 µM	–
Oc1ccc(Cc2cc(O)c(O)cc2O)cc1O	5.2 µM	–
CC(=O)N1N=C(c2ccc(O)c(O)c2)CC1c1ccc(O)c(O)c1 (stereo not drawn)	78.5 µM	–
O=[N+]([O-])c1cc(-c2ccc(O)c(O)c2)ccc1-c1ccc(O)c(O)c1	24.7 µM	–

From ChEMBL document CHEMBL3639274, “Compounds for the treatment of neurodegenerative diseases” (2015)
